# Test results: PubChem BioAssay AID1259408 (Genetic Toxicology Data Bank (GENE-TOX), 2018)
# Active and inactive are the calls of the source. How the calls were made is not given here.
# System: GENE-TOX genotoxicity assays, various organisms and cells
# Experiment: GENE-TOX mutagenicity studies
# Conditions: for call: Assay Type: In vivo carcinogenicity studies
# [1] = Species/Cell Type: Neurospora crassa, Assay Type: Forward gene mutation, Assay Code: NEF+, Evaluation Type: Evaluation A (Pre-1980)
# [2] = Species/Cell Type: Nonhuman, Assay Code: CCG+, Evaluation Type: Evaluation A (Pre-1980)
# [3] = Species/Cell Type: Salmonella typhimurium (one or more of the five standard strains: TA98, TA100, TA1535, TA1537, and TA1538), Assay Type: Histidine reverse gene mutation, Ames assay, Assay Code: SAL+, Evaluation Type: Evaluation A (Pre-1980)
# [4] = Species/Cell Type: Salmonella typhimurium (one or more of the five standard strains: TA98, TA100, TA1535, TA1537, and TA1538), Assay Type: Histidine reverse gene mutation, Ames assay, Assay Code: SALT, Evaluation Type: Evaluation A (Pre-1980)
# [5] = Species/Cell Type: Mammalian polychromatic erythrocytes, Assay Type: Micronucleus test, chromosome aberrations, Assay Code: MNTT, Evaluation Type: Evaluation B (Post-1980)
structure (smiles),measurement,setting,value
CN(N=O)C(N)=O,mutagenic call,"Species/Cell Type: Allium cepa, Assay Type: Chromosome aberrations, Assay Code: ALC+D, Dose Response: With dose response, Evaluation Type: Evaluation A (Pre-1980)",active; positive
same,mutagenic call,"Species/Cell Type: Arabidopsis species, Assay Type: Gene mutation, Assay Code: ARM+D, Dose Response: With dose response, Evaluation Type: Evaluation A (Pre-1980)",active; positive
same,mutagenic call,"Species/Cell Type: Chinese hamster lung (V79) cells, Assay Type: Forward gene mutation at the HPRT or ouabain locus, Assay Code: V79+, Evaluation Type: Evaluation A (Pre-1980)",active; positive
same,mutagenic call,"Species/Cell Type: Chinese hamster ovary (CHO) cells, Assay Type: Forward gene mutation at the HPRT locus, Assay Code: CHO+D, Dose Response: With dose response, Evaluation Type: Evaluation A (Pre-1980)",active; positive
same,mutagenic call,"Species/Cell Type: Drosophila melanogaster, Assay Type: Aneuploidy, partial sex chromosome loss, chromosome aberrations, Assay Code: DAP+M, Evaluation Type: Evaluation A (Pre-1980)",active; positive
same,mutagenic call,"Species/Cell Type: Drosophila melanogaster, Assay Type: Aneuploidy, whole sex chromosome loss, chromosome aberrations, Assay Code: DAC+M, Evaluation Type: Evaluation A (Pre-1980)",active; positive
same,mutagenic call,"Species/Cell Type: Drosophila melanogaster, Assay Type: Sex-linked recessive lethal gene mutation, Assay Code: SRL+, Evaluation Type: Evaluation A (Pre-1980)",active; positive
same,mutagenic call,"Species/Cell Type: Drosophila melanogaster, Sex: Male, Assay Type: Heritable translocation test, chromosome aberrations, Assay Code: DHT+, Evaluation Type: Evaluation A (Pre-1980)",active; positive
same,mutagenic call,"Species/Cell Type: Escherichia coli WP2, Assay Type: Tryptophan reverse gene mutation, Assay Code: WP2+, Evaluation Type: Evaluation A (Pre-1980)",active; positive
same,mutagenic call,"Species/Cell Type: Escherichia coli WP2 UVRA, Assay Type: Tryptophan reverse gene mutation, Assay Code: WPU+, Evaluation Type: Evaluation A (Pre-1980)",active; positive
same,mutagenic call,"Species/Cell Type: Escherichia coli polA (W3119 vs P3478), Assay Type: Rec-assay, DNA effects (bacterial DNA repair), Assay Code: RE1+, Evaluation Type: Evaluation A (Pre-1980)",active; positive
same,mutagenic call,"Species/Cell Type: Glycine max (soybean), Assay Type: Gene mutation, Assay Code: GLM+, Evaluation Type: Evaluation A (Pre-1980)",active; positive
same,mutagenic call,"Species/Cell Type: Hordeum vulgare (barley), Assay Type: Chromosome aberrations, Assay Code: HOC+, Evaluation Type: Evaluation A (Pre-1980)",active; positive
same,mutagenic call,"Species/Cell Type: Hordeum vulgare (barley), Assay Type: Gene mutation, Assay Code: HOM+, Evaluation Type: Evaluation A (Pre-1980)",active; positive
same,mutagenic call,"Species/Cell Type: Human cell culture, Assay Type: Chromosome aberrations in vitro, Assay Code: CYZ+, Evaluation Type: Evaluation A (Pre-1980)",active; positive
same,mutagenic call,"Species/Cell Type: Human diploid fibroblasts, Assay Type: Unscheduled DNA synthesis (UDS) in vitro, DNA effects, Assay Code: UDH+, Evaluation Type: Evaluation A (Pre-1980)",active; positive
same,mutagenic call,"Species/Cell Type: Human lymphocytes, Assay Type: Sister-chromatid exchange (SCE) in vitro, Assay Code: SCL+D, Dose Response: With dose response, Evaluation Type: Evaluation B (Post-1980)",active; positive
same,mutagenic call,"Species/Cell Type: Human, Assay Type: Sister-chromatid exchange (SCE) in vitro, Assay Code: SC1+D, Dose Response: With dose response, Evaluation Type: Evaluation B (Post-1980)",active; positive
same,mutagenic call,"Species/Cell Type: Mammalian polychromatic erythrocytes, Assay Type: Micronucleus test, chromosome aberrations, Assay Code: MNTT, Evaluation Type: Evaluation A (Pre-1980)",no conclusion
same,mutagenic call,"Species/Cell Type: Mouse germ cells, Sex: Male, Assay Type: Unscheduled DNA synthesis (UDS) in vivo, DNA effects, Assay Code: UDT+, Evaluation Type: Evaluation A (Pre-1980)",active; positive
same,mutagenic call,"Species/Cell Type: Mouse, Sex: Male, Assay Type: Sperm morphology, Assay Code: SPI+, Evaluation Type: Evaluation A (Pre-1980)",active; positive
same,mutagenic call,[1],active; positive
same,mutagenic call,"Species/Cell Type: Neurospora crassa, Assay Type: Reverse gene mutation, Assay Code: NER+, Evaluation Type: Evaluation A (Pre-1980)",active; positive
same,call,[2],active; positive
same,mutagenic call,"Species/Cell Type: Nonhuman, Assay Type: Sister-chromatid exchange (SCE) in vitro, Assay Code: SC2+, Evaluation Type: Evaluation A (Pre-1980)",active; positive
same,mutagenic call,"Species/Cell Type: Nonhuman, Assay Type: Sister-chromatid exchange (SCE) in vitro, Assay Code: SC2+D, Dose Response: With dose response, Evaluation Type: Evaluation B (Post-1980)",active; positive
same,mutagenic call,"Species/Cell Type: Nonhuman, Assay Type: Sister-chromatid exchange (SCE) in vivo, Assay Code: SC3+D, Dose Response: With dose response, Evaluation Type: Evaluation B (Post-1980)",active; positive
same,mutagenic call,"Species/Cell Type: Rat primary hepatocytes, Assay Type: Unscheduled DNA synthesis (UDS) in vitro, DNA effects, Assay Code: UDP+, Evaluation Type: Evaluation A (Pre-1980)",active; positive
same,mutagenic call,"Species/Cell Type: Rodents, Sex: Male, Assay Type: Dominant lethal test, Assay Code: DLT-, Evaluation Type: Evaluation A (Pre-1980)",inactive; negative
same,mutagenic call,"Species/Cell Type: Saccharomyces cerevisiae, Assay Type: Aneuploidy, chromosome aberrations, Assay Code: YEN+, Evaluation Type: Evaluation A (Pre-1980)",active; positive
same,mutagenic call,"Species/Cell Type: Saccharomyces cerevisiae, Assay Type: Mitotic recombination or gene conversion, Assay Code: YEC+, Evaluation Type: Evaluation A (Pre-1980)",active; positive
same,mutagenic call,"Species/Cell Type: Saccharomyces cerevisiae, Assay Type: Reverse gene mutation, Assay Code: YER+, Evaluation Type: Evaluation A (Pre-1980)",active; positive
same,mutagenic call,[3],active; positive
same,mutagenic call,"Species/Cell Type: Salmonella typhimurium, Escherichia coli, Serratia marcesens, Assay Type: Forward and reverse gene mutation, host-mediated assay, Assay Code: HMN+, Evaluation Type: Evaluation A (Pre-1980)",active; positive
same,mutagenic call,"Species/Cell Type: Vicia faba, Assay Type: Chromosome aberrations, Assay Code: VIC+, Evaluation Type: Evaluation A (Pre-1980)",active; positive
same,mutagenic call,"Species/Cell Type: Zea mays (corn), Assay Type: Gene mutation, Assay Code: ZEM+D, Dose Response: With dose response, Evaluation Type: Evaluation A (Pre-1980)",active; positive
CC(=O)OC[C@H]1O[C@@H](Oc2ccc3c(c2O)C(=O)c2ccccc2C3=O)[C@H](OC(C)=O)[C@@H](OC(C)=O)[C@@H]1OC(C)=O,mutagenic call,[4],no conclusion
c1ccncc1,mutagenic call,[5],no conclusion
same,mutagenic call,"Species/Cell Type: Nonhuman, Assay Type: Sister-chromatid exchange (SCE) in vitro, Assay Code: SC2+D, Dose Response: With dose response, Evaluation Type: Evaluation A (Pre-1980)",active; positive
ONc1ncnc2nc[nH]c12,mutagenic call,[1],active; positive
c1ccc2c(c1)-c1ccc3ccccc3c1C1OC21 (centres undefined),mutagenic call,"Species/Cell Type: Mouse prostate cells, Assay Type: Cell transformation, Assay Code: CTM-, Evaluation Type: Evaluation A (Pre-1980)",inactive; negative
same,mutagenic call,[3],active; positive
same,mutagenic call,"Species/Cell Type: Syrian hamster embryo (SHE) cells, Assay Type: Cell transformation, clonal assay, Assay Code: CTC+, Evaluation Type: Evaluation A (Pre-1980)",active; positive
CC1=C(/C=C/C(C)=C/C=C/C(C)=C/C=C/C=C(C)/C=C/C=C(C)/C=C/C2=C(C)CCCC2(C)C)C(C)(C)CCC1,mutagenic call,"Species/Cell Type: Bacillus subtilis (H17 vs M45T), Assay Type: Rec-assay, spot test, DNA effects (bacterial DNA repair), Assay Code: REXT, Evaluation Type: Evaluation A (Pre-1980)",no conclusion
same,mutagenic call,[5],no conclusion
[N-]=[N+]=CC(=O)NCC(=O)NN,mutagenic call,[3],active; positive
O=C1CCCCCN1,mutagenic call,"Species/Cell Type: Chinese hamster ovary (CHO) cells, Assay Type: Forward gene mutation at the HPRT locus, Assay Code: CHO-, Evaluation Type: Evaluation B (Post-1980)",inactive; negative
same,call,"Species/Cell Type: Nonhuman, Assay Code: CCG-, Evaluation Type: Evaluation A (Pre-1980)",inactive; negative
CCCCCc1cc(O)c2c(c1)OC(C)(C)[C@@H]1CCC(CO)=C[C@@H]21,mutagenic call,"Species/Cell Type: Human diploid fibroblasts, Assay Type: Unscheduled DNA synthesis (UDS) in vitro, DNA effects, Assay Code: UDH-, Evaluation Type: Evaluation A (Pre-1980)",inactive; negative
Nc1ccc(N=Nc2ccc(-c3ccc(N=Nc4c(S(=O)(=O)O)cc5c(c4N)C(=O)/C(=N/Nc4ccccc4)C(S(=O)(=O)O)=C5)cc3)cc2)c(N)c1,mutagenic call,"Species/Cell Type: Drosophila melanogaster, Assay Type: Sex-linked recessive lethal gene mutation, Assay Code: SRL-, Evaluation Type: Evaluation A (Pre-1980)",inactive; negative
same,call,[2],active; positive
COc1cc([C@@H]2c3cc4c(cc3[C@H](O)[C@H]3COC(=O)[C@H]23)OCO4)cc(OC)c1OC,mutagenic call,"Species/Cell Type: Chinese hamster ovary (CHO) cells, Assay Type: Forward gene mutation at the HPRT locus, Assay Code: CHOT, Evaluation Type: Evaluation B (Post-1980)",no conclusion
Cc1cn([C@H]2CC[C@@H](COP(=O)(O)OP(=O)(O)OP(=O)(O)O)O2)c(=O)[nH]c1=O,mutagenic call,"Species/Cell Type: Nonhuman, Assay Type: Sister-chromatid exchange (SCE) in vitro, Assay Code: SC2T, Evaluation Type: Evaluation B (Post-1980)",no conclusion
CN(CCCC(=O)O)N=O,mutagenic call,[4],no conclusion
Cc1cc2c(c3ccc4ccccc4c13)CC(O)C2=O (centres undefined),mutagenic call,"Species/Cell Type: Salmonella typhimurium (one or more of the five standard strains: TA98, TA100, TA1535, TA1537, and TA1538), Assay Type: Histidine reverse gene mutation, Ames assay, Assay Code: SAL+*, Activation: With metabolic activation, Evaluation Type: Evaluation A (Pre-1980)",active; positive
Cl[Se][Se]Cl,mutagenic call,"Species/Cell Type: Syrian hamster embryo (SA7/SHE) cells, Assay Type: Cell transformation, viral enhanced, Assay Code: CT7T, Evaluation Type: Evaluation A (Pre-1980)",no conclusion
NC(=O)c1cccnc1,mutagenic call,"Species/Cell Type: Human, Assay Type: Sister-chromatid exchange (SCE) in vitro, Assay Code: SC1+, Evaluation Type: Evaluation B (Post-1980)",active; positive
same,mutagenic call,"Species/Cell Type: Nonhuman, Assay Type: Sister-chromatid exchange (SCE) in vitro, Assay Code: SC2+, Evaluation Type: Evaluation B (Post-1980)",active; positive
Cc1cc(Cc2ccc(N)c(C)c2)ccc1N,call,[2],active; positive
